From US12427209B2, “Dual mode 18F-labelled theranostic compounds and uses thereof” (Provincial Health Services Authority, priority 2018, dated 2025)

Columns and labels:
[1] = highly dilute conditions (~5 mM), pH 7.5, in vitro (ref. 19); cited from earlier work
[2] = molecular target: T1, VLA-4 expressing B16-F10 cells (Mus musculus, UniProt P09055+Q00651); test: In vitro saturation binding assay on B16-F10 cells
T1 construct: endogenous in cells; host or cells: B16-F10 murine melanoma cells
Method: Saturation binding assay. In vitro binding saturation assays were performed on B16-F10 cells following published procedures (n=3).(28) Cells were grown to near-confluence on 24 well poly-D-lysine plates. Growth media was removed, and reaction media (RPMI, 1% BSA, 100 U/mL penicillin/streptomycin) was added and allowed to incubate for at least 1 h at 37° C. Increasing concentrations (5 pM to 20 nM) of [^18F]6 were added to the cells and incubated for 1 h at 25° C. with mild agitation. Non-specific binding was determined by repeating the described incubations with [^18F]6 while simultaneously adding 1 (10 μM). After incubation, cells were washed twice with ice-cold PBS, harvested following incubation with trypsin, and measured for radioactivity using a WIZARD 2480 gamma counter (PerkinElmer). Values from the non-specific binding assays were subtracted from the respective values of the specific binding assays. Dissociation constants (Kd'S) were determined using GraphPad PRISM 7 with a one-site specific binding model.

[3] = tested on: B16-F10 tumor-bearing mice; assay type: in vivo, mice (male C57BL/6J); set-up: Reduction of accumulation in the spleen by co-injection of 1 / Reduction of accumulation in the intestines by co-injection of 1 / Reduction of accumulation in the lungs by co-injection of 1 / Reduction of accumulation in bone & marrow by co-injection of 1 / Reduction of accumulation in the tumor by co-injection of 1: concentration or dose not given beside the values
Method: All animal experiments were conducted according to the guidelines established by Canadian Council on Animal Care and approved by Animal Ethics Committee of the University of British Columbia. Mice were housed under pathogen-free conditions and kept on twelve-hour light and dark cycles in the Animal Resource Centre of BC Cancer Research Centre, Vancouver, Canada. PET imaging and biodistribution studies were performed using male C57BL/6J mice. For tumor implantation, mice were anesthetized by inhalation with 2% isoflurane in 2.0 L/min of oxygen, and 1×10^6 B16F10 cells were implanted subcutaneously on the right back at the level of the forelimbs. Mice were imaged or used in biodistribution studies once the tumor grew to reach 8-10 mm in diameter in 8-10 days. Mice for biodistribution study only were anesthetized by 2% isoflurane inhalation, and injected with 1-2 MBq of F-18 labeled […]3-DOTA. For blocking studies, 100 μg of non-radioactive […]3-DOTA was co-injected with the radioactive compound. After injection, the mice were allowed to recover and roam freely in their cages, and euthanized by CO2 inhalation 1 h later. Blood was promptly withdrawn, and the organs of interest were harvested, rinsed with 1×PBS (pH 7.4), and blotted dry. Each organ was weighed and the radioactivity of the collected tissue was measured using a WIZARD 2480 (PerkinElmer), normalized to the injected dose using a standard curve and expressed as the percentage of the injected dose per gram of tissue (% ID/g). Biodistribution of DOTA-[^18[…]]6) in B16-F10 tumor-bearing mice. Mice were anesthetized using 2% isoflurane and injected with 2-3 MBq of [^18F]6 via the tail vein. For competitive VLA-4 blocking studies, 200 μg of 1 was co-injected with 2-3 MBq of [^18F]6. At 1 h p.i., mice were euthanized by CO2 (g) inhalation, blood was collected, and the organs were excised. After rinsing and drying the samples, organs were weighed, their radioactivity was recorded using a Wallac WIZARD2 gamma counter (PerkinElmer), and values were expressed as % ID/g for each organ. Two-tailed ANOVA Sidak's multiple comparison tests (GraphPad PRISM) were used to evaluate statistical significance between the biodistribution of [^18F]6 alone compared with competitive blocking of VLA-4 by co-injections of 1.

[4] = tested on: B16-F10 tumor-bearing mice; set-up: species or system mice (male C57BL/6J); conditions: mouse, in vivo
Method: PET/CT imaging studies were carried out on a microPET/CT scanner (Inveon, Siemens). Briefly, for static PET scans, each tumor bearing mouse was injected with 4-6 MBq of F-18 labeled […]3-DOTA via the caudal lateral tail vein under isoflurane sedation. For blocking study, mice were co-injected with 100 μg of non-radioactive […]3-DOTA. After injection, the mice were allowed to recover and roam freely in their cages. After 50 min, the mice were sedated again and positioned in the scanner. A baseline CT scan was obtained for localization and attenuation correction. This was followed by a 10 min static PET scan. The mice were kept warm by a heating pad during acquisition. The mice were euthanized using CO2 inhalation after static PET imaging followed by biodistribution. The PET images were reconstructed using the ordered subset expectation maximization and maximum a posteriori algorithm (OSEM3D/MAP), using 2 OSEM3D iterations followed by 18 MAP iterations, with a requested resolution of 1.5 mm. […] For static PET scans (recorded for 10 min), mice were first injected with 4-6 MBq of ([^18F]6) via the tail vein while anesthetized with 2% isoflurane and were subjected to baseline CT scans (recorded for 10 min) prior to PET imaging. […] Dynamic PET scans involved the described anesthesia, injection of 4-6 MBq of [^18F]6, baseline CT scans, and PET scans recorded from 5 sec. to 52.5 min p.i. […]

[5] = tested on: mice bearing PSMA-expressing LNCaP prostate cancer xenografts; set-up: species or system mice (NODSCID 1L2RγKO male); conditions: mouse, in vivo
Method: Imaging and biodistribution experiments were performed using NODSCID 1L2RγKO male mice. The mice were maintained and the experiments were conducted in according to the guidelines established by Canadian Council on Animal Care and approved by Animal Ethics Committee of the University of British Columbia. Mice were anesthetized by inhalation with 2% isoflurane in oxygen, and implanted subcutaneously with 1×10^7 LNCaP cells behind left shoulder. Mice were imaged or used in biodistribution studies when the tumor grew up to reach 5-8 mm in diameter during 5-6 weeks. For biodistribution studies, the mice were injected with the radiotracer as described above. For blocking, the mice were co-injected with non-radioactive DCFPyL (0.5 mg). After 1 hour, the mice were anesthetized with 2% isoflurane inhalation, and euthanized by CO2 inhalation. Blood was withdrawn immediately from the heart, and the organs/tissues of interest were collected. The collected organs/tissues were weighed and counted using an automatic gamma counter. The uptake in each organ/tissue was normalized to the injected dose using a standard curve, and expressed as % ID/g.

T1 sequence (Q00651 41-1039): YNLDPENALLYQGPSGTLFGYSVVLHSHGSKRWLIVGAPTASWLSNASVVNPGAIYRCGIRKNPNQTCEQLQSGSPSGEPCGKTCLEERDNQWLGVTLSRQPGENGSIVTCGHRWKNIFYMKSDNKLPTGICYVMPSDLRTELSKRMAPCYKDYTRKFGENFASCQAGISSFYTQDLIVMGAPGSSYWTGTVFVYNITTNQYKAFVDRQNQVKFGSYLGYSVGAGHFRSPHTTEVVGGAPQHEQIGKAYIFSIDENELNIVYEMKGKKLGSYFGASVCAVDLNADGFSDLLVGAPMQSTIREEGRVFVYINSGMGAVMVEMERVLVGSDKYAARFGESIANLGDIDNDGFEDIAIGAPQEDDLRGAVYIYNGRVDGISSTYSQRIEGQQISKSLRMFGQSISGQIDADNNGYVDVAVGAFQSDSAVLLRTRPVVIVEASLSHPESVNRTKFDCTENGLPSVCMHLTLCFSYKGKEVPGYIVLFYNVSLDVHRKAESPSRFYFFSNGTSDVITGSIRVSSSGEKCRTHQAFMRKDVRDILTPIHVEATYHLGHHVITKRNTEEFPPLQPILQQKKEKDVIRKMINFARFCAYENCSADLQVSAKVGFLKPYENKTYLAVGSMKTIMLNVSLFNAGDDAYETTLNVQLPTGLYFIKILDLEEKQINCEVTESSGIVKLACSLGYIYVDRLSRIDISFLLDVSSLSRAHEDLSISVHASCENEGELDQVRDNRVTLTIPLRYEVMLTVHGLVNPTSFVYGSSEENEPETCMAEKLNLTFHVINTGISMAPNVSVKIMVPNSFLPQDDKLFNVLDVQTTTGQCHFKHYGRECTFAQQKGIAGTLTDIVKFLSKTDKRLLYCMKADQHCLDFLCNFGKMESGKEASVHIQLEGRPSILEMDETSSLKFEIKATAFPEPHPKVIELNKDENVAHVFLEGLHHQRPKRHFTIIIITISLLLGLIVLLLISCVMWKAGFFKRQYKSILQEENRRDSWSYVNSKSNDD
T1 sequence (P09055 21-798): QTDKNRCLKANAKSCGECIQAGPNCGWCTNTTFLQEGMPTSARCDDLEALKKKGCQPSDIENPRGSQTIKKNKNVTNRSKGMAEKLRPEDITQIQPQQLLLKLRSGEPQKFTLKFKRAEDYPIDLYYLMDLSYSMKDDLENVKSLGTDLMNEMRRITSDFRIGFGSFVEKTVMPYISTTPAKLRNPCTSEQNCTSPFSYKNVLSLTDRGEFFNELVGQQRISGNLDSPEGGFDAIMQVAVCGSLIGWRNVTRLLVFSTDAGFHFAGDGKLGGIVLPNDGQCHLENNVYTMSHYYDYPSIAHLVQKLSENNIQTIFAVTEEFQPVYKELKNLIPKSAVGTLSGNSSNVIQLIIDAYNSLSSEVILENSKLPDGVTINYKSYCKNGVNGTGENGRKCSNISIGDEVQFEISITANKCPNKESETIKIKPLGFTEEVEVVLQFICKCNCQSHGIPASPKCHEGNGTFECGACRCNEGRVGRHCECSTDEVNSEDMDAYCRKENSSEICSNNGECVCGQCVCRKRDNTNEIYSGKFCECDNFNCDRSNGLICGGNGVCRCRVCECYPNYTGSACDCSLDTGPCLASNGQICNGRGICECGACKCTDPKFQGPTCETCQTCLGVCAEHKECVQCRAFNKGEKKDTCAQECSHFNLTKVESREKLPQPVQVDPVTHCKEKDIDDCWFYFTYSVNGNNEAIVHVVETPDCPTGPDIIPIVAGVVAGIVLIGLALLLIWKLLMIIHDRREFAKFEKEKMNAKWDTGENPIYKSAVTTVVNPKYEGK

In the case of `C#CC[N+](C)(C)C[B-](F)(F)F` [compound 7, N-propargyl-N,N-dimethyl-ammoniomethyl-trifluoroborate], the “Loss of free fluoride (hydrolytic stability)” value [1] is listed as “very slow, first order rate”.
In the case of DOTA-AMBF3-PEG2-LLP2A [compound 6], the “Kd relative to Kd values of other [^18F]RBF3-PEG2-LLP2A conjugates (fold higher)” value ([2]; comparison with earlier conjugates) is reported as “at least 5 fold” and the Kd ([2]; saturation binding of [^18F]6, B16-F10 cells, 1 h at 25° C., n=3) is reported as 6.9 ± 0.59 nM.
In the case of DOTA-[^18F]AMBF3-PEG2-LLP2A [[^18F]6], the “Lowering of tumor-to-blood contrast by VLA-4 blocking” value ([3]; 1 h p.i., p<0.0001) is reported as 85%, the “Lowering of tumor-to-muscle contrast by VLA-4 blocking” value ([3]; 1 h p.i., p<0.0001) is reported as 92% and the “Reduction of accumulation in bone & marrow by co-injection of 1” value ([3]; 1 h p.i., p<0.0001) is reported as 78%. The “Reduction of accumulation in the lungs by co-injection of 1” value ([3]; 1 h p.i., p<0.0001) was 85%, the “Reduction of accumulation in the spleen by co-injection of 1” value ([3]; 1 h p.i., p<0.0001) was 88% and the “Reduction of accumulation in the tumor by co-injection of 1” value ([3]; 1 h p.i., p<0.0001) was 75%. The “Reduction of accumulation in the intestines by co-injection of 1” value ([3]; 1 h p.i., p<0.05) was 43%, the “Reduction of accumulation in the intestines compared to previously investigated [^18F]RBF3-PEG2-LLP2A's” value ([3]; mouse, in vivo) was about 10 fold and the “Tumor-to-tissue ratio Tumor: Bone & Marrow” value ([3]; mouse, in vivo) was 1.98 ± 0.78. The “Tumor-to-tissue ratio Tumor: Kidney” value ([3]; mouse, in vivo) was 2.22 ± 0.60, the “Time of initial perfusion and first pass through the liver (dynamic PET)” value [4] was at most 4 min p.i and the “Time to uptake in the tumor (dynamic PET)” value [4] was at most 1.9 min p.i.
For “^18F-PSMA-617-LysAMBF3-DOTA [F-18 labeled PSMA-617-Lys-AMBF3-DOTA]”, the Tumor/Blood baseline [5] was 14.19 ± 3.85, the Tumor/Kidney baseline [5] was 0.09 ± 0.03 and the Tumor/Muscle baseline [5] was 41.55 ± 10.83.
